From patent US20250195673A1 (priority 2020, published 2025)

Target: human NTSR1 (Homo sapiens, UniProt P30989)
Sequence (P30989 whole entry): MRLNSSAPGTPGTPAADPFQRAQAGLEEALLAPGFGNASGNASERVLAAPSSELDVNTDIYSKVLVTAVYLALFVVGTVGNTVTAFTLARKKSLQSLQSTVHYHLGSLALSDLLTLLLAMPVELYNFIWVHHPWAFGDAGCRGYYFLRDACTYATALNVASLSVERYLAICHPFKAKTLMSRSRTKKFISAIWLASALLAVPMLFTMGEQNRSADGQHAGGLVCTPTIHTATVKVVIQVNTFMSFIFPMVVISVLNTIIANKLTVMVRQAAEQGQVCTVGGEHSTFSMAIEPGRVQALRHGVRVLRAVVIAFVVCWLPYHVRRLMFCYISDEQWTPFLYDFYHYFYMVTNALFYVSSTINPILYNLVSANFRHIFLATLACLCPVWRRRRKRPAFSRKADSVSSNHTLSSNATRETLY

With murine transferrin [mTf] the IP1 accumulation was “not”.
